Test results: ChEMBL document CHEMBL4622865, “Sulfonamide-based 4-anilinoquinoline derivatives as novel dual Aurora kinase (AURKA/B) inhibitors: Synthesis, biological evaluation and in silico insights” (Bioorg Med Chem, 2020)

Assays:
Homo sapiens = species: Homo sapiens; experiment: Selectivity ratio of IC50 for inhibition of human AURKB to IC50 for inhibition of human AURKA
EKVX = experiment: Antitumor activity against human EKVX cells assessed as growth inhibition at 10-'5 M incubated for 48 hrs by SRB assay relative to control; type: functional
Aurora kinase B [1] = molecular target: T1, Aurora kinase B (Homo sapiens, UniProt Q96GD4); experiment: Inhibition of human Aurora B using [H-LRRASLG] as substrate in presence of [gamma-33P]-ATP incubated for 2 hrs by hotspot kinase assay
Aurora kinase B [2] = molecular target: T1, Aurora kinase B; experiment: Inhibition of human Aurora B using [H-LRRASLG] as substrate at 20 uM in presence of [gamma-33P]-ATP incubated for 2 hrs by hotspot kinase assay relative to control
KM12 = experiment: Antitumor activity against human KM12 cells assessed as growth inhibition at 10-'5 M incubated for 48 hrs by SRB assay relative to control; type: functional
[3] = molecular target: T2, Aurora kinase A (Homo sapiens) (UniProt O14965); experiment: Inhibition of human Aurora A using [H-LRRASLG] as substrate at 20 uM in presence of [gamma-33P]-ATP incubated for 2 hrs by hotspot kinase assay relative to control
T2 sequence (whole entry): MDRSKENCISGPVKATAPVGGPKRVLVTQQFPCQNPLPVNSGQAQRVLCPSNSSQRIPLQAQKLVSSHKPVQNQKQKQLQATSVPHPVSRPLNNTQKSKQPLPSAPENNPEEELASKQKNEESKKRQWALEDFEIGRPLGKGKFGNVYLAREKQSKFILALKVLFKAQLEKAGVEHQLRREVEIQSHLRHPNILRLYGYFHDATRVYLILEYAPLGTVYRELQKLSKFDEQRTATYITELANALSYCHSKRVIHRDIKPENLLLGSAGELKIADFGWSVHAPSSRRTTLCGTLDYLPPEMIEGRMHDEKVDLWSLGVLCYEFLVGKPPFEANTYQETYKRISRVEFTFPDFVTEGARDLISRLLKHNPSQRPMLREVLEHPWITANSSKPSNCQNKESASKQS

Aurora kinase A = molecular target: T3, Aurora kinase A (Homo sapiens, UniProt O14965); experiment: Inhibition of human Aurora A using [H-LRRASLG] as substrate in presence of [gamma-33P]-ATP incubated for 2 hrs by hotspot kinase assay
T3 sequence (O14965 whole entry): T2 sequence (whole entry)

HCT-116 = experiment: Antitumor activity against human HCT116 cells assessed as growth inhibition at 10-'5 M incubated for 48 hrs by SRB assay relative to control; type: functional
[4] = molecular target: MAP kinase-activated protein kinase 3 (Homo sapiens) (UniProt Q16644); experiment: Inhibition of human MAPKAPK3 using KKLNRTLSVA as substrate at 20 uM in presence of [gamma-33P]-ATP incubated for 2 hrs by hotspot kinase assay relative to control
[5] = molecular target: Calcium/calmodulin-dependent protein kinase kinase 2 (Homo sapiens) (UniProt Q96RR4); experiment: Inhibition of human CAMKK2 using MBP as substrate at 20 uM in presence of [gamma-33P]-ATP incubated for 2 hrs by hotspot kinase assay relative to control
A498 = experiment: Antitumor activity against human A498 cells assessed as growth inhibition at 10-'5 M incubated for 48 hrs by SRB assay relative to control; type: functional
M14 = experiment: Antitumor activity against human M14 cells assessed as growth inhibition at 10-'5 M incubated for 48 hrs by SRB assay relative to control; type: functional
[6] = molecular target: Dual specificity testis-specific protein kinase 1 (Homo sapiens) (UniProt Q15569); experiment: Inhibition of human TESK1 using cofilin as substrate at 20 uM in presence of [gamma-33P]-ATP incubated for 2 hrs by hotspot kinase assay relative to control
[7] = molecular target: Serine/threonine-protein kinase VRK2 (Homo sapiens) (UniProt Q86Y07); experiment: Inhibition of human VRK2 using casein as substrate at 20 uM in presence of [gamma-33P]-ATP incubated for 2 hrs by hotspot kinase assay relative to control
[8] = molecular target: Proto-oncogene tyrosine-protein kinase ROS (Homo sapiens) (UniProt P08922); experiment: Inhibition of human ROS/ROS1 using KKKSPGEYVNIEFG as substrate at 20 uM in presence of [gamma-33P]-ATP incubated for 2 hrs by hotspot kinase assay relative to control
786-0 = experiment: Antitumor activity against human 786-O cells assessed as growth inhibition at 10-'5 M incubated for 48 hrs by SRB assay relative to control; type: functional
SNB-75 = experiment: Antitumor activity against human SNB75 cells assessed as growth inhibition at 10-'5 M incubated for 48 hrs by SRB assay relative to control; type: functional
CAKI-1 = experiment: Antitumor activity against human CAKI-1 cells assessed as growth inhibition at 10-'5 M incubated for 48 hrs by SRB assay relative to control; type: functional
T47D = experiment: Antitumor activity against human T47D cells assessed as growth inhibition at 10-'5 M incubated for 48 hrs by SRB assay relative to control; type: functional
UACC-62 = experiment: Antitumor activity against human UACC62 cells assessed as growth inhibition at 10-'5 M incubated for 48 hrs by SRB assay relative to control; type: functional
MCF7 = experiment: Antitumor activity against human MCF7 cells assessed as growth inhibition at 10-'5 M incubated for 48 hrs by SRB assay relative to control; type: functional
SK-MEL-5 = experiment: Antitumor activity against human SK-MEL-5 cells assessed as growth inhibition at 10-'5 M incubated for 48 hrs by SRB assay relative to control; type: functional
MOLT-4 = experiment: Antitumor activity against human MOLT4 cells assessed as growth inhibition at 10-'5 M incubated for 48 hrs by SRB assay relative to control; type: functional
UO-31 = experiment: Antitumor activity against human UO31 cells assessed as growth inhibition at 10-'5 M incubated for 48 hrs by SRB assay relative to control; type: functional
HOP-62 = experiment: Antitumor activity against human HOP62 cells assessed as growth inhibition at 10-'5 M incubated for 48 hrs by SRB assay relative to control; type: functional
Hs-578T = experiment: Antitumor activity against human Hs 578T cells assessed as growth inhibition at 10-'5 M incubated for 48 hrs by SRB assay relative to control; type: functional
MDA-MB-231 = experiment: Antitumor activity against human MDA-MB-231 cells assessed as growth inhibition at 10-'5 M incubated for 48 hrs by SRB assay relative to control; type: functional
IGROV-1 = experiment: Antitumor activity against human IGROV1 cells assessed as growth inhibition at 10-'5 M incubated for 48 hrs by SRB assay relative to control; type: functional

T1 sequence (Q96GD4 whole entry): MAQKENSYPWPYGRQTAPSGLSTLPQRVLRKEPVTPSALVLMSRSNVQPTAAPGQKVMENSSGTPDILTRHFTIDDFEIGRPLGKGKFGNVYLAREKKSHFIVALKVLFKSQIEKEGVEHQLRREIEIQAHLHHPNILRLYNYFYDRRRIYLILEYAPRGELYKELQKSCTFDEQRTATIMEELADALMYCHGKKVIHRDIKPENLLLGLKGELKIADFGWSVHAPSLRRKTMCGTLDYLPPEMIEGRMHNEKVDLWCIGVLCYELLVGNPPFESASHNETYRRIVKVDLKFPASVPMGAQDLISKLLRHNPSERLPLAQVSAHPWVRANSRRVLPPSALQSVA
Chain of Proto-oncogene tyrosine-protein kinase ROS (Homo sapiens) (P08922 whole entry): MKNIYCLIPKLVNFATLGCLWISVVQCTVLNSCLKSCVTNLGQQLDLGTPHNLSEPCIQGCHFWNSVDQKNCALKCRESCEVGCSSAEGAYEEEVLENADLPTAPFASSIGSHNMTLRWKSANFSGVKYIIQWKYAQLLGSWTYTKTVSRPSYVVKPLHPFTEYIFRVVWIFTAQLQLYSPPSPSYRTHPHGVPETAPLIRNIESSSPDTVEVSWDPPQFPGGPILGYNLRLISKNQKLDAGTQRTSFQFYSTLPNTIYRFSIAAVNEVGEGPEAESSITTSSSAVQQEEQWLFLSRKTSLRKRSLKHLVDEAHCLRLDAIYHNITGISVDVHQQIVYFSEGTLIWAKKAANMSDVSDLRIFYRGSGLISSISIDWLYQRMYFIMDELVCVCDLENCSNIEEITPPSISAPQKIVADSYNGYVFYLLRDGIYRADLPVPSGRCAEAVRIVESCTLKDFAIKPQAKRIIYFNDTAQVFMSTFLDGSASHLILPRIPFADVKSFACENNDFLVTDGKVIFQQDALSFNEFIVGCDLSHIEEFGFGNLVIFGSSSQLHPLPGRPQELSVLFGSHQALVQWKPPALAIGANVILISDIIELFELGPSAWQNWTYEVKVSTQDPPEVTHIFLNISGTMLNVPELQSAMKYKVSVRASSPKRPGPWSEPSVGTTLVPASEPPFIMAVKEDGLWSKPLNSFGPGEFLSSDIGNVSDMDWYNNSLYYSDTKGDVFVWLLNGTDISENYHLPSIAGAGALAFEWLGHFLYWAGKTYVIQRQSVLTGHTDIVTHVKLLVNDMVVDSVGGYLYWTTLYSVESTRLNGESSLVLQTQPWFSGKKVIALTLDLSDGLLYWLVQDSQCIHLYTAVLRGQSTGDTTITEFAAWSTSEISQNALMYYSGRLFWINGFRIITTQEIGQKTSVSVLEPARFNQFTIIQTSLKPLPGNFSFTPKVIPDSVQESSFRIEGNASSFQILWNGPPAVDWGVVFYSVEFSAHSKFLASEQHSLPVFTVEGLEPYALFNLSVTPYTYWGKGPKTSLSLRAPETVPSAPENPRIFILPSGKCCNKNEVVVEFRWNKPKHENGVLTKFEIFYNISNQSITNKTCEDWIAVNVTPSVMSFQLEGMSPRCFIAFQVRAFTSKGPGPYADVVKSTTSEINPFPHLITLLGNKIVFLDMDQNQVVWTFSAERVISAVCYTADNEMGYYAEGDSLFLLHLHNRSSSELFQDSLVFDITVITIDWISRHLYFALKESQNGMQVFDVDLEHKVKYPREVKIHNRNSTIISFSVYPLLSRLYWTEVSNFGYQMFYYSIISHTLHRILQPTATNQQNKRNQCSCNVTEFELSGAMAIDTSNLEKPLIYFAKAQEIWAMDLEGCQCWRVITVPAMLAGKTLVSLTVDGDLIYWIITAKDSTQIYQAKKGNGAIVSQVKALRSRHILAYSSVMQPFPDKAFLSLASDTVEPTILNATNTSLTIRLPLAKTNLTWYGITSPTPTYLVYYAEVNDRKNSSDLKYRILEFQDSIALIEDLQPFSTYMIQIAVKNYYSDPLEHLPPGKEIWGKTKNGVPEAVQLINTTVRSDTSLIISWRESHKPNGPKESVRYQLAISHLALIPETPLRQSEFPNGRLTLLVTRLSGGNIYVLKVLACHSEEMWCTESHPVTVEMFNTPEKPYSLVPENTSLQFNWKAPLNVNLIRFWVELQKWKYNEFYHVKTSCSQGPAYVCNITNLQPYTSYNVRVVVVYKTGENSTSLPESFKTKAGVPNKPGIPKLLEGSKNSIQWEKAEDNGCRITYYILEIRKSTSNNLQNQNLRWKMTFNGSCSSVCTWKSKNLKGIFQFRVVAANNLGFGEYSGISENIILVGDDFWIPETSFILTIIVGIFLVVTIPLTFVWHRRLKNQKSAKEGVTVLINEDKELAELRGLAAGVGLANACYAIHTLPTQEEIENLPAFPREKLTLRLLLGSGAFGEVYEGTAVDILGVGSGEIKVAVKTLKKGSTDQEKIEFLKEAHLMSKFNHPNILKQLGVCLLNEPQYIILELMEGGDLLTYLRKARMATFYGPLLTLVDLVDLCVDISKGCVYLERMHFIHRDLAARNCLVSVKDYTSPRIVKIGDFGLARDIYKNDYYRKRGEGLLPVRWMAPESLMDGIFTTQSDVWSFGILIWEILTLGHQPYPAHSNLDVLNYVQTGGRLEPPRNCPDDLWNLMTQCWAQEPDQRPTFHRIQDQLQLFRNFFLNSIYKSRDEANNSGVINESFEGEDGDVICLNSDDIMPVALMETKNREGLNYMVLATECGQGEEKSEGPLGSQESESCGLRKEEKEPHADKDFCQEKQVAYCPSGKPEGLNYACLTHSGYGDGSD
Chain of MAP kinase-activated protein kinase 3 (Homo sapiens) (Q16644 whole entry, looked up): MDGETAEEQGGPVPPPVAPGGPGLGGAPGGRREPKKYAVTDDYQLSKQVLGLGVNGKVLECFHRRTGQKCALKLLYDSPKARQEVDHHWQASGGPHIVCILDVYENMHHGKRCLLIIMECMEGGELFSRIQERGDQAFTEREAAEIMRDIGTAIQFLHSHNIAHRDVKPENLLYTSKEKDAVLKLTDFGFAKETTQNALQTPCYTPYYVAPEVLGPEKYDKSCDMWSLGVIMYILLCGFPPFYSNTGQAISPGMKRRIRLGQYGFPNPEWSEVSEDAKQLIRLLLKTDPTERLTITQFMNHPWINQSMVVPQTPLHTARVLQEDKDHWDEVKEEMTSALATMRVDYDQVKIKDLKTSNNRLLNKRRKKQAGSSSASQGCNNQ
Chain of Calcium/calmodulin-dependent protein kinase kinase 2 (Homo sapiens) (Q96RR4 2-588 limits assumed): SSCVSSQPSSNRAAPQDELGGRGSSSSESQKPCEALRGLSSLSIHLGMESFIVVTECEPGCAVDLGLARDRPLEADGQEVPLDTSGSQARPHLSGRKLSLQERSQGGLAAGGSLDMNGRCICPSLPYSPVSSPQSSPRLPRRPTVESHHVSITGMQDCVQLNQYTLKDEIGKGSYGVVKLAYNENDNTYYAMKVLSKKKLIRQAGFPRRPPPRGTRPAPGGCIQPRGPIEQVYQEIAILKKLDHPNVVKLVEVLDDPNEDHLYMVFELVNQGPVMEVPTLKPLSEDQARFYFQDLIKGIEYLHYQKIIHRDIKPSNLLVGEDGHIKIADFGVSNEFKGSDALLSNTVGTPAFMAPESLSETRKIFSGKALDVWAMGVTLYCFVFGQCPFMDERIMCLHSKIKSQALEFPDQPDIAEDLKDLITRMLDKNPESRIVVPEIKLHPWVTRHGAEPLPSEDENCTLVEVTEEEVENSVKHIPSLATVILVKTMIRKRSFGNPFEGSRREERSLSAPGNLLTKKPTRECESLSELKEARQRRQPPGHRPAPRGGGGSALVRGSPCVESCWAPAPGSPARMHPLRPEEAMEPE
Chain of Serine/threonine-protein kinase VRK2 (Homo sapiens) (Q86Y07 whole entry): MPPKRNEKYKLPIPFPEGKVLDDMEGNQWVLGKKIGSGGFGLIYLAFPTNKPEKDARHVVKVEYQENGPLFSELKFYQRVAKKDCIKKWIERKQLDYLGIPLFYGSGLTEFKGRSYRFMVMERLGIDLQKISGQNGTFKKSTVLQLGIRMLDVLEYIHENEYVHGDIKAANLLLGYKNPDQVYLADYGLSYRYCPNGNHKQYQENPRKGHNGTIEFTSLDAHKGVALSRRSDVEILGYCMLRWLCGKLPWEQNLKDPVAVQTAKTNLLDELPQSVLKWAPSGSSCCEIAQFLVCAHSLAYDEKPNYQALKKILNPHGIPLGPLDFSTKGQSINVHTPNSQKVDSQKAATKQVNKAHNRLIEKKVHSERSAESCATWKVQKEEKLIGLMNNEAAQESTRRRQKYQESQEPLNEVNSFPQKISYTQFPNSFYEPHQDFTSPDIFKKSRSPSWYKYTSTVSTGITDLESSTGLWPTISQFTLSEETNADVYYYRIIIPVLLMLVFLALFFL
Chain of Dual specificity testis-specific protein kinase 1 (Homo sapiens) (Q15569 whole entry, looked up): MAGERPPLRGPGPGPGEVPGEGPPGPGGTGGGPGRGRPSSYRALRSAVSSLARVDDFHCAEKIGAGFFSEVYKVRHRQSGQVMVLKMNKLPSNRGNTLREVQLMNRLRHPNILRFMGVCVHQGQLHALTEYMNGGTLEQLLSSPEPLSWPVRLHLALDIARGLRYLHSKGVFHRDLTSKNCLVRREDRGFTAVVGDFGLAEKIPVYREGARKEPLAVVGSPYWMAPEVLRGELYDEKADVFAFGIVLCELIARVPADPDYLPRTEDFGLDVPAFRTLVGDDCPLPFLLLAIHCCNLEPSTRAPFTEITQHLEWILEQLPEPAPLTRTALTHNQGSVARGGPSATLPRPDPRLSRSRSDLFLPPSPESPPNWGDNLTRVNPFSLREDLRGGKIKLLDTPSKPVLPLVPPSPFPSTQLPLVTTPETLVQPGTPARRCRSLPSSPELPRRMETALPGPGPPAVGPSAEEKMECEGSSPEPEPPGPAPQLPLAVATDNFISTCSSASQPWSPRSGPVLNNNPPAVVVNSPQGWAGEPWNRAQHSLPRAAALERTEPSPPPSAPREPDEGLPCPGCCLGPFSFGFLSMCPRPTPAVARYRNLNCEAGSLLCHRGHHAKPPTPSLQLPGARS

Structure (SMILES)	IC50 (Aurora kinase B [1]) [nM]	inhibition (Aurora kinase B [2]) [%]	inhibition [3] [%]	IC50 (Aurora kinase A) [nM]	growth inhibition (GI) (KM12)	growth inhibition (GI) (A498)	growth inhibition (GI) (SNB-75)	growth inhibition (GI) (CAKI-1)	growth inhibition (GI) (UO-31)	also measured
CCOC(=O)c1cnc2ccc(C)cc2c1Nc1cccc(NS(C)(=O)=O)c1	2990	81	64.4	980	>50%	–	–	–	–	Ratio IC50 (Homo sapiens): 3; growth inhibition (GI) (EKVX): >=20%
CCOC(=O)c1cnc2ccc(Br)cc2c1Nc1cccc(S(N)(=O)=O)c1	1620	87.4	26.9	–	–	>=20%	>=20%	>=20%	–	–
CCOC(=O)c1cnc2ccccc2c1Nc1cccc(S(=O)(=O)NC)c1	–	33.7	6.15	–	>=20%	>=20%	>=20%	>=20%	>=20%	growth inhibition (GI) (T47D): >=20%; growth inhibition (GI) (UACC-62): >=20%; growth inhibition (GI) (MCF7): >=20%; growth inhibition (GI) (SK-MEL-5): >=20%; growth inhibition (GI) (MOLT-4): >=20%; growth inhibition (GI) (HOP-62): >=20%; growth inhibition (GI) (Hs-578T): >=20%; growth inhibition (GI) (MDA-MB-231): >=20%; growth inhibition (GI) (IGROV-1): >=20%

More lines, main results first:

IC50 (Aurora kinase B [1]) [nM]	inhibition (Aurora kinase B [2]) [%]	inhibition [3] [%]	IC50 (Aurora kinase A) [nM]	Structure (SMILES)	growth inhibition (GI) (KM12)	growth inhibition (GI) (A498)	growth inhibition (GI) (SNB-75)	growth inhibition (GI) (CAKI-1)	growth inhibition (GI) (UO-31)	also measured
6890	71.8	61.3	7640	CCOC(=O)c1cnc2cc(Cl)cc(Cl)c2c1Nc1cccc(S(N)(=O)=O)c1	–	>=20%	–	–	–	growth inhibition (GI) (HCT-116): >50%; inhibition [4]: 3.1%; inhibition [5]: 33.7%; growth inhibition (GI) (M14): >=20%; inhibition [6]: 4.01%; inhibition [7]: 31.8%; inhibition [8]: 20.1%; growth inhibition (GI) (786-0): >50%
1350	91.6	66	1770	CCOC(=O)c1cnc2ccc(Br)cc2c1Nc1cccc(NS(C)(=O)=O)c1	–	>=20%	–	–	>=20%	–
